Data taken from PMC8333062, “Chemical tools for epichaperome-mediated interactome dysfunctions of the central nervous system” (Nature Communications, 2021).

Tests used:
[1] = Chronic administration toxicity; format: in vivo, B6C3F1 mice; conditions: 75 mg/kg IV 3 times per week, approximately 24 weeks
CYP2C19 = target: T1, CYP2C19 (Homo sapiens, UniProt P33261); experiment: Cytochrome P450 profiling, benzylnirvanol; format: in vitro ADME; conditions: for % PU-HZ151 remaining: Benzylnirvanol
T1 construct: PU-HZ151 (1 µM) was incubated with human liver microsomes (0.5 mg protein mL^−1); tissue Life Technologies HMMCPL; host or cells: human liver microsomes
Experimental: (§1) To identify cytochrome P450 enzymes responsible for PU-HZ151’s metabolism in human liver microsomes the following procedure was followed. Phosphate buffer (100 mM, pH 7.4) was prepared monthly and stored at 4 °C. Frozen stock solutions of human liver microsomes (Life Technologies; Cat# HMMCPL) were used once after thawing and were not refrozen. NADPH stock solution (50 mM) in distilled water was prepared fresh daily. […] The stock solutions of these P450 inhibitors were prepared in DMSO. […] The concentration of the chemical inhibitors used in the assay were furafylline (10 μM), tranylcypromine (2 μM), ketoconazole (1 μM), troleandomycin (20 μM), orphenadrine (50 μM), montelukast (3 μM), sulfaphenazole (10 μM), benzylnirvanol (1 μM), quinidine (1 μM), and 1-aminobenzotriazole (1 mM) for all the P450 enzymes. Timing of the reactions was started following the addition of NADPH/magnesium chloride mix and PU-HZ151. Time-dependent chemical inhibitors (furafylline, troleandomycin, orphenadrine, and 1-aminobenzotriazole) were preincubated with human microsomes in the presence of NADPH and magnesium chloride for 15 min before the addition of PU-HZ151 and timing of reactions was started after addition of PU-HZ151. […] Following brief vortexing and centrifugation, a 200 µL aliquot of the supernatant was transferred to a tube, and 10 µL of haloperidol (1 µg mL^−1) as internal standard was added. Following brief vortexing and centrifugation, 50 µL of supernatant was added to a 96-well plate for subsequent LC-MS/MS analysis. PU-HZ151 was similarly tested as above in the absence of CYP inhibitors for comparative purposes. All samples were assayed in duplicate. […] This was similarly performed for incubations of PU-HZ151 performed in the absence of CYP inhibitor.

CYP2C8 = target: T2, CYP2C8 (Homo sapiens, UniProt P10632); experiment: Cytochrome P450 profiling, montelukast; format: in vitro ADME; conditions: for % PU-HZ151 remaining: Montelukast
T2 construct: tissue Life Technologies HMMCPL; host or cells: human liver microsomes
T2 sequence (P10632 1-490): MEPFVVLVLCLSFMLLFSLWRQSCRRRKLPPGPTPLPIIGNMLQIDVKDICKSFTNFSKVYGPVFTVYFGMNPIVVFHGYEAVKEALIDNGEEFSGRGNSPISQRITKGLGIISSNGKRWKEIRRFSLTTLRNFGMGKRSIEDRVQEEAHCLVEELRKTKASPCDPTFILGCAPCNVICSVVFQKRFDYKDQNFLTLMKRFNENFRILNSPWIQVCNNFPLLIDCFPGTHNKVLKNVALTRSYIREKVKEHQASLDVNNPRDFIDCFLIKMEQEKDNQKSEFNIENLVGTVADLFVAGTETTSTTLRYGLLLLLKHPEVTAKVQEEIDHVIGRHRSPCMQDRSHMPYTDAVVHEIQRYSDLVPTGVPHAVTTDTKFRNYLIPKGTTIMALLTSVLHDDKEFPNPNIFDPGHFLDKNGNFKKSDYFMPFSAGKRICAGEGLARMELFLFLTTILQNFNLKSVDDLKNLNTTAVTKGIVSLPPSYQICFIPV
Experimental: as §1

[2] = PET biodistribution in human patients; format: in vivo; conditions: mean n=3
Excerpt: To evaluate the brain permeability of PU-HZ151 into the human brain, we produced the [^124I]-labeled derivative and performed serial PET imaging studies of human patients (n = 3; NCT03371420), and derived time-activity (i.e. standard uptake values (SUV) versus time post-administration) curves for the brain and various other tissues (Fig. 2b). PET data obtained for [^124I]-labeled PU-H71 (NCT01269593 and ref. [39]) were used for comparison. […] The AUC values recorded for [^124I]-PU-HZ151 in the human brain post-single injection are at par with what was measured in the human muscle and lung, supportive of uptake of PU-HZ151 into the human brain (Fig. 2b). Magnetic resonance imaging (MRI), by offering structural and soft tissue resolution, confirmed the presence of PU-HZ151 in the brain tissue (Fig. 2d). […] The secondary outcome of the trial was to measure adverse events following administration of the probe. Safety of [^124I]-PU-HZ151 in human subjects was assessed by evaluation of the incidence, nature, and severity of adverse events and serious adverse events (Supplementary Note 2).
[^124I]-PU-HZ151 and [^124I]-PU-H71 were synthesized in-house by the institutional cyclotron core facility at high specific activity. Analyses of the epichaperome by positron emission tomography (PET-CT) were performed as previously reported. In brief, research PET-CT was performed using an integrated PET-CT scanner (Discovery DSTE, GE Healthcare). CT scans for attenuation correction and anatomic coregistration were performed before tracer injection. Patients received 5 mCi of [^124I]-PU-HZ151 or [^124I]-PU-H71 by peripheral vein over 2 min. PET data were reconstructed using a standard ordered subset expected maximization iterative algorithm. Emission data were corrected for scatter, attenuation, and decay. PET scans were performed 0.5, 3, and 24 h after tracer administration. Numbers in the scale bar indicate upper and lower standardized uptake value (SUV) thresholds that define pixel intensity on PET images. SUV is a pixel value, derived from PET measurements of in vivo radioactivity, quantified as the fraction of the radioactive dose injected found in a cubic centimeter of measured tissue multiplied (ie, normalized) by patient body weight (grams). Maximum Intensity Projection (MIP) 3D images were constructed from the voxels with maximum intensity that fell in the way of parallel rays traced from the viewpoint to the plane of projection. At each pixel the highest data value encountered along the corresponding viewing ray was determined. MRI scans were obtained as part of routine clinical care using hardware and standard data acquisition and processing methods. MRI was obtained using a 1.5T magnet (Signa HDxt, GE Healthcare, Milwaukee, WI). […] Gadopentetate dimeglumine (Magnevist, HealthCare Pharmaceuticals Inc.) was injected though a peripheral angiocatheter at a standard dose (0.2 mL kg^−1 body weight, 40 mL, 2 cc s^−1). For precise localization of tracer uptake to specific neuroanatomical structures, PET brain images were fused to MRI brain images using the Integrated Registration application of the AW Suite software package (GE Healthcare, Milwaukee, Wisconsin, USA).

T1 sequence (P33261 whole entry): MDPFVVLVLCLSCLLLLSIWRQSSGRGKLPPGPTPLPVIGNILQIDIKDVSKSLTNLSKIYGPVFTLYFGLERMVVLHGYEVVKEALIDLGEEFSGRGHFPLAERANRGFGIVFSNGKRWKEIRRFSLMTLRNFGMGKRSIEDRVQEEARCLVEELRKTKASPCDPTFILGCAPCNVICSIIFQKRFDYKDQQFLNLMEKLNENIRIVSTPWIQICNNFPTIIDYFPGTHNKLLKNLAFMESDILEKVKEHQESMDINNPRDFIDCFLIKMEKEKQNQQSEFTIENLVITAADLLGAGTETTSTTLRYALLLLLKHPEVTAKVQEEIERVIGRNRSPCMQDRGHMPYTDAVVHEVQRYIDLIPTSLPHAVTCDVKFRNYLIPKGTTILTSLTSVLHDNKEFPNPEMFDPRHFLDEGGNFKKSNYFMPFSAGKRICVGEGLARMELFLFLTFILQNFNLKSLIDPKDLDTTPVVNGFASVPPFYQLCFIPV

CC(C)(C)CNCCn1c(Sc2cc3c(cc2I)OCO3)nc2c(N)ncnc21 [Compound 85]
chronic toxicity [1]: No | % PU-HZ151 remaining (CYP2C19; 15 min): 59.2% | % PU-HZ151 remaining (CYP2C19; 30 min): 39.3% | % PU-HZ151 remaining (CYP2C19; 60 min): 20.2% | inhibition of PU-HZ151 metabolism (CYP2C19; benzylnirvanol): 4% | % PU-HZ151 remaining (CYP2C8; 15 min): 59.7% | % PU-HZ151 remaining (CYP2C8; 30 min): 42.1% | % PU-HZ151 remaining (CYP2C8; 60 min): 22.4% | inhibition of PU-HZ151 metabolism (CYP2C8; montelukast): 6% | SUV average, Brain ([2]; 0.5 h): 1.12 SUV | SUV average, Lung ([2]; 0.5 h): 0.59 SUV | SUV average, Muscle ([2]; 0.5 h): 0.87 SUV | SUV average, Brain ([2]; 3 h): 0.49 SUV | SUV average, Lung ([2]; 3 h): 0.34 SUV | SUV average, Muscle ([2]; 3 h): 0.37 SUV | SUV average, Brain ([2]; 24 h): 0.04 SUV | SUV average, Lung ([2]; 24 h): 0.1 SUV | SUV average, Muscle ([2]; 24 h): 0.1 SUV
